Test results taken from PubChem BioAssay AID651642 (Sanford-Burnham Center for Chemical Genomics, 2012).
pIC50: −log10 of the molar value.

What was measured:
HL-1 = assay: protection of cardiomyocytes from stress damage, SAR follow-up, cell-based, panel, H9c2 and HL-1, H2O2, 2-deoxyglucose, ATP luminescence (AID 651642)
H9c2 = assay: as above
[1] = H9c2/HL-1 cardiomyocyte 2-deoxyglucose damage, mean of runs, with 2-deoxyglucose, mean IC50 across panel
[2] = H9c2/HL-1 cardiomyocyte 2-deoxyglucose damage, run 1, with 2-deoxyglucose
[3] = H9c2/HL-1 cardiomyocyte 2-deoxyglucose damage, run 2, with 2-deoxyglucose
[4] = H9c2/HL-1 cardiomyocyte 2-deoxyglucose damage, run 3, with 2-deoxyglucose
[5] = H9c2/HL-1 cardiomyocyte 2-deoxyglucose damage, run 4, with 2-deoxyglucose
[6] = H9c2/HL-1 cardiomyocyte H2O2 oxidative damage, mean of runs, with H2O2, mean IC50 across panel
[7] = H9c2/HL-1 cardiomyocyte H2O2 oxidative damage, run 1, with H2O2
[8] = H9c2/HL-1 cardiomyocyte H2O2 oxidative damage, run 2, with H2O2
[9] = H9c2/HL-1 cardiomyocyte H2O2 oxidative damage, run 3, with H2O2
[10] = H9c2/HL-1 cardiomyocyte H2O2 oxidative damage, run 4, with H2O2

SMILES	pIC50 (HL-1; [1])	pIC50 (HL-1; [2])	pIC50 (HL-1; [3])	pIC50 (HL-1; [4])	pIC50 (HL-1; [5])	pIC50 (HL-1; [6])	pIC50 (HL-1; [7])	pIC50 (HL-1; [8])	pIC50 (HL-1; [9])	pIC50 (HL-1; [10])	pIC50 (H9c2; [1])	pIC50 (H9c2; [2])	pIC50 (H9c2; [3])	pIC50 (H9c2; [4])	pIC50 (H9c2; [5])	pIC50 (H9c2; [7])	pIC50 (H9c2; [8])	pIC50 (H9c2; [9])	pIC50 (H9c2; [10])	pIC50 (H9c2; [6])
COc1ccc2c(c1OC)C(=O)N1c3ccccc3C(=O)N(Cc3cccc(Cl)c3Cl)C21 (stereo unspecified)	5.83	6.10	6.09	5.70	5.63	< 4.10	< 4.10	< 4.10	< 4.10	< 4.10	5.05	5.03	4.92	5.18	5.13	6.35	6.13	< 4.10	< 4.10	–
COc1ccc2c(c1OC)C(=O)N1c3ccccc3C(=O)N(Cc3c(Cl)cccc3Cl)C21 (stereo unspecified)	–	5.20	5.19	< 4.10	< 4.10	< 4.10	< 4.10	< 4.10	< 4.10	< 4.10	< 4.10	< 4.10	< 4.10	< 4.10	< 4.10	5.47	5.43	< 4.10	< 4.10	–
COc1ccc2c(c1OC)C(=O)N1c3ccccc3C(=O)N(Cc3cccc(C)c3)C21 (stereo unspecified)	4.97	5.12	5.08	4.92	4.84	< 4.10	< 4.10	< 4.10	< 4.10	< 4.10	< 4.10	< 4.10	< 4.10	< 4.10	< 4.10	5.25	5.22	< 4.10	< 4.10	–
COc1cc(-c2cc(C(=O)NCC(=O)Nc3cccc(C(C)=O)c3)c3cccc(Cl)c3n2)cc(OC)c1OC	5.18	5.26	5.04	5.27	5.19	–	< 4.10	< 4.10	5.39	5.17	–	< 4.10	4.49	5.14	5.09	5.57	5.46	5.59	5.46	6.19
COc1ccc2nc(-c3cc(OC)c(OC)c(OC)c3)cc(C(=O)NCC(=O)Nc3cccc(C(C)=O)c3)c2c1	5.54	5.90	5.49	5.46	5.44	5.29	5.35	5.16	5.39	5.30	5.58	5.52	5.45	5.72	5.69	6.12	6.06	< 4.10	6.49	–
CCOC(=O)c1ccccc1NC(=O)c1cc(-c2cc(OC)c(OC)c(OC)c2)nc2ccccc12	–	5.57	5.52	< 4.10	< 4.10	–	< 4.10	< 4.10	< 4.10	5.19	< 4.10	< 4.10	< 4.10	< 4.10	< 4.10	5.37	5.35	< 4.10	< 4.10	–
COc1ccc2nc(-c3cc(OC)c(OC)c(OC)c3)cc(C(=O)Nc3cccc(C(C)=O)c3)c2c1	–	5.22	5.17	< 4.10	< 4.10	–	< 4.10	< 4.10	5.42	5.07	–	< 4.10	4.55	< 4.10	< 4.10	5.27	5.08	< 4.10	5.53	–
COc1cc(-c2cc(C(=O)Nc3cccc(C(C)=O)c3)c3ccccc3n2)cc(OC)c1OC	5.06	5.25	5.20	5.06	4.86	5.15	5.25	5.25	5.17	4.99	< 4.10	< 4.10	< 4.10	< 4.10	< 4.10	5.43	5.39	< 4.10	5.43	–
CCOC(=O)c1cccc(NC(=O)c2cc(-c3cc(OC)c(OC)c(OC)c3)nc3cc(Cl)ccc23)c1	< 4.10	< 4.10	< 4.10	< 4.10	< 4.10	–	< 4.10	< 4.10	5.19	5.17	< 4.10	< 4.10	< 4.10	< 4.10	< 4.10	< 4.10	4.51	< 4.10	< 4.10	–
CCOC(=O)c1ccc(NC(=O)c2cc(-c3cc(OC)c(OC)c(OC)c3)nc3ccccc23)cc1	< 4.10	< 4.10	< 4.10	< 4.10	< 4.10	< 4.10	< 4.10	< 4.10	< 4.10	< 4.10	< 4.10	< 4.10	< 4.10	< 4.10	< 4.10	< 4.10	4.67	< 4.10	< 4.10	–
CCOC(=O)c1cccc(NC(=O)CNC(=O)c2cc(-c3cc(OC)c(OC)c(OC)c3)nc3ccc(C)cc23)c1	5.66	5.96	5.84	5.54	5.47	5.52	5.54	5.48	5.84	5.35	5.57	5.50	5.45	5.73	5.66	6.14	6.07	6.29	6.24	6.18
CCNC(=O)c1cccc(NC(=O)c2cc(-c3cc(OC)c(OC)c(OC)c3)nc3ccccc23)c1	5.03	5.29	5.20	4.89	4.89	5.17	5.42	4.94	5.43	5.11	4.65	4.67	4.65	4.65	4.64	5.31	5.31	5.54	5.47	5.40
COc1ccc2c(c1OC)C(=O)N1c3ccccc3C(=O)N(Cc3ccc(F)cc3)C21 (stereo unspecified)	4.72	5.21	4.97	4.75	4.38	< 4.10	< 4.10	< 4.10	< 4.10	< 4.10	< 4.10	< 4.10	< 4.10	< 4.10	< 4.10	< 4.10	5.10	< 4.10	< 4.10	–
CCOC(=O)c1cccc(NC(=O)CNC(=O)c2cc(-c3cc(OC)c(OC)c(OC)c3)nc3c(Cl)cccc23)c1	–	5.45	5.24	< 4.10	< 4.10	–	< 4.10	< 4.10	5.30	4.81	< 4.10	< 4.10	< 4.10	< 4.10	< 4.10	5.26	5.06	< 4.10	5.47	–
COc1cc(-c2cc(C(=O)Nc3cccc(C(=O)N(C)C)c3)c3ccccc3n2)cc(OC)c1OC	4.78	5.16	5.12	4.61	4.57	5.03	5.13	4.89	5.12	5.01	< 4.10	< 4.10	< 4.10	< 4.10	< 4.10	< 4.10	5.50	5.48	5.42	–
CCOC(=O)c1cccc(NC(=O)CNC(=O)c2cc(-c3cc(OC)c(OC)c(OC)c3)nc3ccc(OC)cc23)c1	5.64	5.80	5.76	5.53	5.53	5.45	5.43	5.42	5.58	5.39	5.50	5.35	5.32	5.77	5.76	6.02	6.01	6.32	6.27	6.13
COc1cc(-c2cc(C(=O)Nc3cccc(C(C)=O)c3)c3ccc(Cl)cc3n2)cc(OC)c1OC	< 4.10	< 4.10	< 4.10	< 4.10	< 4.10	5.65	5.51	5.46	6.06	5.78	< 4.10	< 4.10	< 4.10	< 4.10	< 4.10	5.47	5.42	< 4.10	< 4.10	–
